Reference: ChEMBL document CHEMBL3991601, “The target landscape of clinical kinase drugs” (Science, 2017)
Calls of active or inactive are those of the source.

Columns and labels:
[1] = molecular target: T1, Phosphorylase b kinase gamma catalytic chain, liver/testis isoform (Homo sapiens, UniProt P15735)
T1 sequence (P15735 whole entry): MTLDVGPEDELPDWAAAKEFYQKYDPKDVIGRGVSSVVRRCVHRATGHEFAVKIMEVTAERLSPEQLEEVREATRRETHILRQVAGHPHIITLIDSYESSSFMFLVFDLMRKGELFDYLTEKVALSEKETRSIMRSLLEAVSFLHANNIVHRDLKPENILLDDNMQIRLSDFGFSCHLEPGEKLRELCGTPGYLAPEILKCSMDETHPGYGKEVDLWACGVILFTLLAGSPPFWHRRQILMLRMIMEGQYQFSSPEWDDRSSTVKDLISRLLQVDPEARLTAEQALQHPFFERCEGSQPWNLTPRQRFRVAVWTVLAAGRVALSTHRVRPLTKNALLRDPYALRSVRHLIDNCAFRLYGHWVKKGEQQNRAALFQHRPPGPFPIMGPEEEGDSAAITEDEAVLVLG

[2] = molecular target: T2, ADP/ATP translocase 2 (Homo sapiens, UniProt P05141)
T2 sequence (P05141 whole entry): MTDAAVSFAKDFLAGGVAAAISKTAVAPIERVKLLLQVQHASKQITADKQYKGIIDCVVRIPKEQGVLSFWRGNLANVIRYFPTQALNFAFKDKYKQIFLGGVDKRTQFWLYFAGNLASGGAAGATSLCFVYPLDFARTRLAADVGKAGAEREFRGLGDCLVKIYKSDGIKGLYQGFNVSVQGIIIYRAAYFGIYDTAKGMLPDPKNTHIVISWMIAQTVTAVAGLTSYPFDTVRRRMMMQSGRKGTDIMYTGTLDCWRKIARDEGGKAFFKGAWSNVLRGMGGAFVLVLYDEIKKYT

[3] = molecular target: Serine/threonine-protein kinase MRCK gamma (Homo sapiens, UniProt Q6DT37)
[4] = molecular target: T3, Serine/threonine-protein kinase TAO3 (Homo sapiens, UniProt Q9H2K8)
T3 sequence (Q9H2K8 whole entry): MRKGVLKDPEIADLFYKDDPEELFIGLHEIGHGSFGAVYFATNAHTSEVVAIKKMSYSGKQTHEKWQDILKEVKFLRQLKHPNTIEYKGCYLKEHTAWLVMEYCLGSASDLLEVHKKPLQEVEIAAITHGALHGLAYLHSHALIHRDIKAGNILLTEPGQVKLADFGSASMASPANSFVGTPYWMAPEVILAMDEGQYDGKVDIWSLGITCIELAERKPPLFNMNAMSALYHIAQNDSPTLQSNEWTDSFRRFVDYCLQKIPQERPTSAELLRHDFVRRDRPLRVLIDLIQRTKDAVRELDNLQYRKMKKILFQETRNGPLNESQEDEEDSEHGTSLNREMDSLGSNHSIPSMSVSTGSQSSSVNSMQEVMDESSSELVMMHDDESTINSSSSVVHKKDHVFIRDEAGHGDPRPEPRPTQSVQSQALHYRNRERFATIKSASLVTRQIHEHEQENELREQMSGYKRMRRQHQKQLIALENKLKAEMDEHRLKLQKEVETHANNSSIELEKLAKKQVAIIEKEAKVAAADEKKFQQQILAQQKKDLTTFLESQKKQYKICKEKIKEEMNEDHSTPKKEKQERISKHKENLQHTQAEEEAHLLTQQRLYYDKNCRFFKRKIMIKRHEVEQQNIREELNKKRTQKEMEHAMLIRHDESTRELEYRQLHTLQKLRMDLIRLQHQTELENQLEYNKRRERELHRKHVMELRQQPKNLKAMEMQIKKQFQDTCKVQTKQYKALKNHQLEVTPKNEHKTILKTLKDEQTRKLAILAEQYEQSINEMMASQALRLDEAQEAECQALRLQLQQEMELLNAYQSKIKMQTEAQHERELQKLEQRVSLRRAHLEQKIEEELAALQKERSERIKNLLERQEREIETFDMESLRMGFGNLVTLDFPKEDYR

[5] = molecular target: T4, Glycogen phosphorylase, brain form (Homo sapiens, UniProt P11216)
T4 sequence (P11216 whole entry): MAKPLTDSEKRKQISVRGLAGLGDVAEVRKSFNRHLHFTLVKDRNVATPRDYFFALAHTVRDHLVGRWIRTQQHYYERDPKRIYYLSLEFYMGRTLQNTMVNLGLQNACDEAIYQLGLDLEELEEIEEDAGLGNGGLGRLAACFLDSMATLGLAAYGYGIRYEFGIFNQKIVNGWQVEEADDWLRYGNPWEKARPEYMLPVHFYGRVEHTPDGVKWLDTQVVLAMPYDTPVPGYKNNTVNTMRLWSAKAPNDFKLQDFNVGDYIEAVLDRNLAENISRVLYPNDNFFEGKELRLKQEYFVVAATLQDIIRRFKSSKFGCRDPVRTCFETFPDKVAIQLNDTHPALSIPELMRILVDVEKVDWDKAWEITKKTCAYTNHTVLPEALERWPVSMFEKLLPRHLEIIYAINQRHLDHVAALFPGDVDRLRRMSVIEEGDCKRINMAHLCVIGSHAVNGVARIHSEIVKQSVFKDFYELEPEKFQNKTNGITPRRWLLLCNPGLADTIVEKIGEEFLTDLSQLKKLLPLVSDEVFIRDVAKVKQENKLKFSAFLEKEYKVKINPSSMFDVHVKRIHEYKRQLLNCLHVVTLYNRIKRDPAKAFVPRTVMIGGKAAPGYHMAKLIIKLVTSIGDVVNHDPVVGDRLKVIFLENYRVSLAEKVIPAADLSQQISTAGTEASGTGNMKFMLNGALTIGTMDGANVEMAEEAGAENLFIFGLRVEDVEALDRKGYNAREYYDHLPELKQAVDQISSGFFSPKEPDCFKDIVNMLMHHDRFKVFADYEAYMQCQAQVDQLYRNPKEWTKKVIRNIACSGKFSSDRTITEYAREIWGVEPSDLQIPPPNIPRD

[6] = molecular target: Structural maintenance of chromosomes protein 2 (Homo sapiens, UniProt O95347)
Further: in the data inactive means no Kd found up to 30 µM.

Structural maintenance of chromosomes protein 2, sequence (O95347 whole entry): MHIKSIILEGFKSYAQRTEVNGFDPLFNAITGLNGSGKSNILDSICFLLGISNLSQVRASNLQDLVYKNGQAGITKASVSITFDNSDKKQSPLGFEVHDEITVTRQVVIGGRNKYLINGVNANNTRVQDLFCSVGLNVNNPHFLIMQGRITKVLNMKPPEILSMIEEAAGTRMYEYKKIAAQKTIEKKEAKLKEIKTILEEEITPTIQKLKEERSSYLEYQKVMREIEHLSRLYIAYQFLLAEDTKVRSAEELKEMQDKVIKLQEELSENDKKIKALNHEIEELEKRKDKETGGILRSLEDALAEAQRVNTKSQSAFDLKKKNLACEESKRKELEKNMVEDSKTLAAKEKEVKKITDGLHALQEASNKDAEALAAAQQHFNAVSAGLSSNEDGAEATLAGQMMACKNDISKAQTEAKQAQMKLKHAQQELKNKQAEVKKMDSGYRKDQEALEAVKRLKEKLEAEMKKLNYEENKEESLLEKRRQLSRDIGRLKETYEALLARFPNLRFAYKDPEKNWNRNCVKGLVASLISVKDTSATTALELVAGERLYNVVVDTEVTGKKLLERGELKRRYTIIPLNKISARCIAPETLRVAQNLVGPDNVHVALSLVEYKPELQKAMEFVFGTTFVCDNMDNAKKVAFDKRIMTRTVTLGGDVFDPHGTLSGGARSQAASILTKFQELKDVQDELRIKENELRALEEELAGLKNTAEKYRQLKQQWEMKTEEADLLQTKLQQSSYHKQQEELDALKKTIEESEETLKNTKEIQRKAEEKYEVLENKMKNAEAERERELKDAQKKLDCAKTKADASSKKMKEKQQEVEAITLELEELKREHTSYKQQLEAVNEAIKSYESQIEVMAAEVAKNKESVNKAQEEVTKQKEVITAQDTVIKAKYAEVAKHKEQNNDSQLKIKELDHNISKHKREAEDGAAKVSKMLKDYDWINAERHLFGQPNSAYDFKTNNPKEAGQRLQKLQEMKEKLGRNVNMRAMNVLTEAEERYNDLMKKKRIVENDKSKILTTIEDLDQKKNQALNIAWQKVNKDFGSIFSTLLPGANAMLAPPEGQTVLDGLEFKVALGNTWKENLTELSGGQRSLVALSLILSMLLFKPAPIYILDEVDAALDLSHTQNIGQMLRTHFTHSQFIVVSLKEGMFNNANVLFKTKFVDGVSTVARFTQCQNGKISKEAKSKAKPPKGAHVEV
Serine/threonine-protein kinase MRCK gamma, sequence (Q6DT37 whole entry): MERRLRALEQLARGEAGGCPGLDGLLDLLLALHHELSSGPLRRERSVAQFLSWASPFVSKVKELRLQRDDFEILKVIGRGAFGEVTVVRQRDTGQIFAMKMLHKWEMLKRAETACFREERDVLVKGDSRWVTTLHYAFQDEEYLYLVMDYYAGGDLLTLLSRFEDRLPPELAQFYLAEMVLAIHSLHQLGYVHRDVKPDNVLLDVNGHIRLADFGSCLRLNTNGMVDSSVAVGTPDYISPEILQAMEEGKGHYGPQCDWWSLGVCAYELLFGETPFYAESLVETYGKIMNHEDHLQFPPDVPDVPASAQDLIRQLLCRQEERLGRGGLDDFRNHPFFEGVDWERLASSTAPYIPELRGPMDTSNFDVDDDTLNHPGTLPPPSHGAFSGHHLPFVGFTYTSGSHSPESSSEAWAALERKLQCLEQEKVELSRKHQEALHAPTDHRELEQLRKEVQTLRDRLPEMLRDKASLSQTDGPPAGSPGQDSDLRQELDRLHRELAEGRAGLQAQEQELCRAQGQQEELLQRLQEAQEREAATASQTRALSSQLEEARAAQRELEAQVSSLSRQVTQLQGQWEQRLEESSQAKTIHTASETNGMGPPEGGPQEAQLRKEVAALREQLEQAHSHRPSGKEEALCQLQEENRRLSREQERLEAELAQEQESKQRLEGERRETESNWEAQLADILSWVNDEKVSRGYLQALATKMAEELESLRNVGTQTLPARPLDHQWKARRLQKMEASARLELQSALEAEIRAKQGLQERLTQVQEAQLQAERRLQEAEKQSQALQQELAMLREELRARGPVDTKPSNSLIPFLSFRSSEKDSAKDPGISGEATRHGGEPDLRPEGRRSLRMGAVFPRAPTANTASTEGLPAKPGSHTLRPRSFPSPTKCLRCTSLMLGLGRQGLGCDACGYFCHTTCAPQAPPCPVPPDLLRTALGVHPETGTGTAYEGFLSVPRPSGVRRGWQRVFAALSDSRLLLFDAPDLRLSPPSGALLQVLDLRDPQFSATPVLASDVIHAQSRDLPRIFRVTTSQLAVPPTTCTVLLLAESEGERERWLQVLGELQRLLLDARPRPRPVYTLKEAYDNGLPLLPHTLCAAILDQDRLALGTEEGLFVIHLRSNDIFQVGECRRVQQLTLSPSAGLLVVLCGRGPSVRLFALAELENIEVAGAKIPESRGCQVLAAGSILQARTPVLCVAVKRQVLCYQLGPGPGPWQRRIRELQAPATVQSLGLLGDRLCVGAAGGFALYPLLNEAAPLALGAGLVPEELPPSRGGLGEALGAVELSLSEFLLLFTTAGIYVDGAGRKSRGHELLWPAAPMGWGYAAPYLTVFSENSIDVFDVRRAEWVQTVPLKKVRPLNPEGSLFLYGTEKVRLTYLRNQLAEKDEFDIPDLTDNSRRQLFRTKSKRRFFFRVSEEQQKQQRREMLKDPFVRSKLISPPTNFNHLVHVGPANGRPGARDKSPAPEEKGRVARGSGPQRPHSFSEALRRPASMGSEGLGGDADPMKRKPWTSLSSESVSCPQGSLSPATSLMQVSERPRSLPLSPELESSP

Kd [1]	Kd [2]	Kd [3]	Kd [4]	Kd [5]	Kd [6]	SMILES
> 30 µM (inactive)	> 30 µM (inactive)	> 30 µM (inactive)	> 30 µM (inactive)	> 30 µM (inactive)	> 30 µM (inactive)	CO[C@H]1C[C@@H]2CC[C@@H](C)[C@@](O)(O2)C(=O)C(=O)N2CCCC[C@H]2C(=O)O[C@H]([C@H](C)C[C@@H]2CC[C@@H](O)[C@H](OC)C2)CC(=O)[C@H](C)/C=C(\C)[C@@H](O)[C@@H](OC)C(=O)[C@H](C)C[C@H](C)/C=C/C=C/C=C/1C [SIROLIMUS]
> 30 µM (inactive)	> 30 µM (inactive)	> 30 µM (inactive)	> 30 µM (inactive)	> 30 µM (inactive)	> 30 µM (inactive)	CCS(=O)(=O)c1cccc(-c2cc(C(=O)NC3CCN(C)CC3)c(C)c3[nH]c4ncc(C)cc4c23)c1 [TAK-901]
> 30 µM (inactive)	> 30 µM (inactive)	> 30 µM (inactive)	> 30 µM (inactive)	> 30 µM (inactive)	> 30 µM (inactive)	COc1cc2c(Nc3ccc(Cl)c(Cl)c3F)ncnc2cc1OC[C@@H]1C[C@@H]2CN(C)C[C@@H]2C1 [TESEVATINIB]
> 30 µM (inactive)	> 30 µM (inactive)	> 30 µM (inactive)	> 30 µM (inactive)	> 30 µM (inactive)	> 30 µM (inactive)	O=C(Cc1ccc(-c2ccc(OCCN3CCOCC3)cc2)cn1)NCc1ccccc1 [TIRBANIBULIN]
> 30 µM (inactive)	> 30 µM (inactive)	> 30 µM (inactive)	> 30 µM (inactive)	> 30 µM (inactive)	> 30 µM (inactive)	O=C1NC(=O)[C@@H](c2cn3c4c(cccc24)CCC3)[C@@H]1c1c[nH]c2ccccc12 [TIVANTINIB]
> 30 µM (inactive)	> 30 µM (inactive)	> 30 µM (inactive)	> 30 µM (inactive)	> 30 µM (inactive)	> 30 µM (inactive)	C[C@@H](NC(=O)c1ncnc(N)c1Cl)c1ncc(C(=O)Nc2cc(C(F)(F)F)c(Cl)cn2)s1 [TOVORAFENIB]
> 30 µM (inactive)	> 30 µM (inactive)	> 30 µM (inactive)	> 30 µM (inactive)	> 30 µM (inactive)	> 30 µM (inactive)	Cn1ncc(Cl)c1-c1cc(C(=O)N[C@H](CN)Cc2ccc(F)c(F)c2)oc1Cl [UPROSERTIB]
> 30 µM (inactive)	> 30 µM (inactive)	> 30 µM (inactive)	2.86 µM (active)	> 30 µM (inactive)	> 30 µM (inactive)	CN1C/C=C/CCOc2cccc(c2)-c2ccnc(n2)Nc2cccc(c2)C1 [ZOTIRACICLIB]

SMILES	Kd [1]	Kd [2]	Kd [3]	Kd [4]	Kd [5]	Kd [6]
Cc1cc(Nc2ncnc3ccc(NC4=NC(C)(C)CO4)cc23)ccc1Oc1ccn2ncnc2c1 [TUCATINIB]	> 30 µM (inactive)	> 30 µM (inactive)	> 30 µM (inactive)	> 30 µM (inactive)	> 30 µM (inactive)	> 30 µM (inactive)
